Columns and labels:
[1] = target: T1, mineralocorticoid receptors (Homo sapiens, UniProt P08235); experiment: Assay for in-vitro antagonistic activity against mineralocorticoid receptors (Gal4-MR LBD luciferase reporter in HEK293T cells, 1 nM aldosterone); assay type: cell-based
T1 construct: expressed in transfected cells; host or cells: HEK293T
T1 sequence (P08235 726-964 limits assumed): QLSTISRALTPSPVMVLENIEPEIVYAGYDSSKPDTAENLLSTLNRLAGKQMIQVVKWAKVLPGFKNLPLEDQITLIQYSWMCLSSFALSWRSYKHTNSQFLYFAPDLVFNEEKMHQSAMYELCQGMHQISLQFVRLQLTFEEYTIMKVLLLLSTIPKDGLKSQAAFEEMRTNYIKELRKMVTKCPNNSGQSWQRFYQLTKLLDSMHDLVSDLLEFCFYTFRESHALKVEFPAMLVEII
Source text: In in-vitro activity assays of compounds in the disclosure, the characteristic of luciferase binding to the substrate to cause a chemiluminescence reaction can be utilized to transfect human embryonic kidney cells (HEK293T) with a plasmid comprising the mineralocorticoid receptor ligand binding domain (LBD) and fused with the Gal4 DNA-binding domain (DBD) and a firefly luciferase reporter gene plasmid under the control of Gal4 UAS (upstream activation sequence). The influence of the presence of stimulation or different stimuli on mineralocorticoid receptor activity is judged by the level of firefly luciferase activity.
Test Example 1: Assay for In-Vitro Antagonistic Activity Against Mineralocorticoid Receptors
All the compounds to be tested were serially diluted 3-fold from 10 mM with DMSO (Sigma, D8418), and 10 concentrations were obtained for each of the compounds.
The reference compound eplerenone was serially diluted 3-fold with DMSO to form 10 concentrations.
A 1000× positive control (10 mM eplerenone) and a 1000× negative control (100% DMSO) were prepared.
• 2.1. All cells were cultured as recommended by ATCC. HEK293T cells were passaged and plated when in the exponential growth phase. • 2.2. The old culture medium in the cell culture flask was discarded, and the cells were washed with PBS. • 2.3. A proper amount of TrypLE solution was added to the culture flask to digest the cells to separate them, and the digestion was stopped with a serum-containing complete culture medium. • 2.4. The cell suspension was centrifuged to make the cells settle. The cells were washed with PBS 2 times to remove phenol red and were then suspended with culture medium to a proper concentration (only cells with a survival rate of greater than 90% were used in the subsequent experiments). • 2.5. 6×10^6 HEK293T cells were spread on a 100 mm Petri dish and incubated in a 37° C., 5% CO2 incubator for 16 h. • 2.6. The cells were transfected with plasmids and then incubated in a 37° C., 5% CO2 incubator for another 5-6 h. • 2.7. 25 nL of compound dilution was transferred to a 384-well assay plate using Echo655. • 2.8. HEK293T cells were plated at a concentration of 17,000 cells/well in a 384-well plate, and meanwhile 1 nM aldosterone was added to each well. • 2.9. The cells were incubated in a 37° C., 5% CO2 incubator for 18-20 h. • 2.10. 25 μL of britelite+luciferase assay reagent was added to each well of the 384-well assay plate, and luminescence values were recorded on an Envision 2105 plate reader. • 2.11. The IC50 values of the compounds were obtained using the software Graphad 8.0 and a non-linear fitting equation.

[2] = system: db/db mice (idiopathic type II diabetes model mice); experiment: Efficacy test with db/db mouse model of diabetic nephropathy; assay type: in vivo; conditions: for mALB compared to the model control group / urine albumin-to-creatinine ratio (UACR) compared to the model control group / urine amount compared to the model control group: after 4 weeks of administration, in words; for UACR / Urine creatinine / Urine weight / mALB: Mean±SEM
Protocol: Test Example 3: Efficacy Test with db/db Mouse Model of Diabetic Nephropathy
Proper amounts of compound 2-2 and finerenone were taken and separately mixed with a 0.5% hydroxyethyl cellulose solution (Tylose MH300) to form suspensions.
30 db/db mice (idiopathic type II diabetes model mice) were selected and divided into a model control group, a positive control group, and an administration group, and 10 db/m mice were selected as a control group.
The mice were dosed by oral gavage (i.g) once daily over 4 consecutive weeks. The dosing regimen is shown in detail in Table 4.
Urine albumin was used as a main measure. The data obtained were analyzed statistically using EXCEL and IBM SPSS Statistics 22.0.
All metrology data are expressed as Mean±SEM s. The parameters before and after dosing were plotted for the different groups of animals using the software Graph Pad Prism 8. Data were analyzed using the statistical software SPSS 22.0. A Levene's test of homogeneity of variance was performed on the parameters. When the variance was homogenous (P≥0.05), the Dunnett's & LSD method from the one-way analysis of variance (ANOVA) was used to compare the differences between the groups. When the variance was not homogenous (P<0.05), the Mann-Whitney U test (the M-W method) from the Kruskal-Wallis H test (the K-W method) was used to compare the differences between the groups. For animal survival, the log-rank test from the product-limit method (the K-M method) was used to compare the differences between the groups.

[3] = Human liver microsome metabolism study; assay type: in vitro ADME; conditions: human liver microsomes
Protocol: Test Example 2: Human Liver Microsome Metabolism Study
222.5 μL of human liver microsomes (protein concentration: 1 mg/mL) and 25 μL of NADPH ([…]) were added to an incubation plate and pre-heated for 10 min. 2.5 μL of control compound and test compound (100 μM) were added.
30-μL aliquots were taken from the reaction solution at 0.5, 5, 10, 15, 20, and 30 min. The reaction was stopped by adding 5 volumes of cold acetonitrile containing IS (100 nM alprazolam, 200 nM caffeine, and 100 nM tolbutamide). The reaction solution was centrifuged, and 100 μL of the supernatant was collected and mixed with 100 μL of ultrapure H2O before analysis by LC-MS/MS.
The slope value k was determined by linear regression of the natural logarithm of a curve of the parent drug remaining percentage versus incubation time.
The in-vitro half-life (in-vitro T1/2) was determined by the slope value:
Using the following equation (the average of repeated measurements), the in-vitro T½ (min) was converted to in-vitro intrinsic clearance (in-vitro CLint, in μL/min/mg protein): […]

[4] = 15 mg/kg i.g. once daily, 4 weeks

In the case of `COc1cc(C#N)ccc1C1C(C(N)=O)=C(C)Nc2c(C)cnc(OCCSC)c21` (centres unmarked) [Compound 1], the IC50 [1] is reported as 16 nM.

For `[2H]C([2H])([2H])Oc1cc(C#N)ccc1C1C(C(N)=O)=C(C)Nc2c(C)cnc(OCC)c21` (centres unmarked) [Compound 2], the IC50 [1] was 7 nM, the “mALB compared to the model control group” value [2] was “tended to be lower than those in the model control group” and the “urine albumin-to-creatinine ratio (UACR) compared to the model control group” value [2] was “statistically significantly smaller than that of the mice in the model control group (P<0.01)”. For the same compound, the “urine amount compared to the model control group” value [2] was “tended to be lower than those in the model control group”.

Work on `[2H]C([2H])([2H])C([2H])([2H])Oc1ncc(C)c2c1C(c1ccc(C#N)cc1OC)C(C(N)=O)=C(C)N2` (centres unmarked) [Compound 3] yielded an IC50 [1] of 17 nM.

Compound `CCOc1ncc(Cl)c2c1C(c1ccc(C#N)cc1OC)C(C(N)=O)=C(C)N2` (centres unmarked) [Compound 4] has an IC50 [1] of 11 nM.

`CCOc1nc(Cl)cc2c1C(c1ccc(C#N)cc1OC)C(C(N)=O)=C(C)N2` (centres unmarked) [Compound 5] showed an IC50 [1] of 5 nM.

Compound `CCOc1ncc(C)c2c1C(c1cc(C)c(C#N)cc1OC)C(C(N)=O)=C(C)N2` (centres unmarked) [Compound 6] has an IC50 [1] of 10 nM.

`CCOc1ncc(C)c2c1[C@H](c1ccc(C#N)cc1OC)C(C(N)=O)=C(C)N2` [Finerenone] showed an IC50 [1] of 13 nM, a Remaining amount % ([3]; 0.5 min) of 100.00% and a Remaining amount % ([3]; 5 min) of 67.31%. It also gave a Remaining amount % ([3]; 10 min) of 42.44%, a Remaining amount % ([3]; 15 min) of 24.78% and a Remaining amount % ([3]; 20 min) of 16.62%. The Remaining amount % ([3]; 30 min) was 7.44%, the half-life at 1 μM ([3]; in-vitro half-life) was 7.4 min and the microsomal CLint at 1 μM ([3]; in-vitro intrinsic clearance) was 93.7 µL/min/mg. For the same compound, the UACR ([2]; 0 weeks (before dosing)) was 5538.19 µg/mg, the Urine creatinine ([2]; 0 weeks (before dosing)) was 0.37 μmol/24 h and the Urine weight ([2]; 0 weeks (before dosing)) was 2.86 mL. It also gave a mALB ([2]; 0 weeks (before dosing)) of 226.68 μg/24 h, a UACR [2, 4] of 4294.14 µg/mg and a Urine creatinine [2, 4] of 2.11 μmol/24 h. For the same compound, the Urine weight [2, 4] was 11.96 mL, the mALB [2, 4] was 1,013.76 μg/24 h and the “mALB compared to the model control group” value [2] was “tended to be lower than those in the model control group”. For the same compound, the “urine albumin-to-creatinine ratio (UACR) compared to the model control group” value [2] was “decreased somewhat but is not significantly different from that of the mice in the model group” and the “urine amount compared to the model control group” value [2] was “tended to be lower than those in the model control group”.
